Ends that are not written are not given here.
Tests used:
[1] = system: fibronectin type III10 (RGD-containing) fragments; test: Panning of phage display peptide libraries on fibronectin fragments; format: binding; details: Table I
[2] = system: III8-11 fibronectin fragment / WDDGWL-phage; test: Inhibition of WDDGWL-phage binding to fibronectin fragment by peptides; details: soluble competitor, microtiter assay, Fig. 2 b
[3] = WDDGWL-phage attachment to immobilized peptide; format: binding; details: peptide coated at 20 μg/ml; mean of triplicate wells
RGD-phage = format: binding; details: peptide coated at 20 μg/ml; mean of triplicate wells
[4] = Inhibition of WDDGWL-phage attachment to immobilized peptides; format: binding; details: soluble peptide 1 mM; mean of triplicate wells, Fig. 3 b
[5] = Inhibition of RGD-phage attachment to immobilized peptides; format: binding; details: soluble peptide 1 mM; mean of triplicate wells, Fig. 3 c
fibrinogen = details: aspartic acid residues of DDLW mutated to alanines; cited from earlier work
RGD-mimic OPG2 antibody = details: aspartic acid residues of DDLW mutated to alanines; ref Bajt et al. (3); cited from earlier work
fibronectin = test: Affinity chromatography on *[…]*-Sepharose; format: binding, Human
[6] = system: fibronectin and fibronectin fragments containing the RGD sequence (III10); test: Phage attachment assay on fibronectin and RGD-containing fibronectin fragments; format: binding, Human
[7] = system: fibronectin fragment III8,9 (RGD-); test: Phage attachment assay on fibronectin fragment III8,9; format: binding; details: microtiter wells, OD600, mean of triplicates
[8] = system: control proteins (BSA and GST); test: Phage attachment assay on control proteins; format: binding; details: microtiter wells, OD600, mean of triplicates
[9] = system: fragment encompassing the alternatively spliced cell attachment domain of fibronectin; test: Phage attachment assay on alternatively spliced fibronectin fragment; format: binding; details: not shown
[10] = Inhibition of RGD-phage binding to immobilized beta 3
[11] = Fibronectin on control peptide column; format: binding; details: not shown
[12] = system: MG-63 osteosarcoma cells, fibronectin; test: Cell attachment assay on fibronectin; format: cell-based; details: MG-63 cells, 30 min, crystal violet OD600, mean of triplicate wells
[13] = system: MG-63 osteosarcoma cells, vitronectin; test: Cell attachment assay on vitronectin; format: cell-based; details: MG-63 cells, 30 min, crystal violet OD600, mean of triplicate wells
[14] = system: MG-63 osteosarcoma cells, type IV collagen; test: Cell attachment assay on type IV collagen; format: cell-based; details: MG-63 cells, 30 min, crystal violet OD600, mean of triplicate wells
[15] = system: beta 3 subunit of purified alpha IIb beta 3; test: Immunoblot of purified alpha IIb beta 3; format: binding
[16] = system: beta 1 and beta 3 integrin subunits in MG-63 total cell extracts; test: Immunoblot of MG-63 cell extracts; format: binding; details: peptide 100 μM, Fig. 7 b lanes C and D

## LVWLLVQFY
[1]; EDTA elution
  number of phage displaying the same amino acid motif: 2

## WDDGWM
[1]; RGD elution
  number of phage displaying the same amino acid motif: 4

## A*CRGDGWMC*G (disulfide) [reference compound]
[2]
  inhibition of WDDGWL-phage binding: in a dose-dependent manner
[3]
  binding of WDDGWL-phage to immobilized peptide: WDDGWL-phage can bind to the RGD-containing peptide
RGD-phage
  binding of RGD-phage to immobilized peptide: slight, but consistent, binding
[4]
  inhibition of WDDGWL-phage binding to immobilized peptide: blocked the WDDGWL-phage binding
[5]
  inhibition of RGD-phage binding to immobilized peptide: inhibited by both peptides

## mutant alIb[33 integrin: integrin with aspartic acid residues of DDLW mutated to alanines (ref 3)
fibrinogen
  binding to fibrinogen: did not appreciably affect the binding
RGD-mimic OPG2 antibody
  binding to OPG2 antibody: lost

## GRGESP
fibronectin; eluting peptide 1 mM, SDS-PAGE
  elution of fibronectin from *CWDDGWLC*-Sepharose: not with the GRGESP peptide

## WDDGLM
[1]; RGD elution
  number of phage displaying the same amino acid motif: 7

## SWDDGWL
[1]; direct infection of wells
  number of phage displaying the same amino acid motif: 6

## WDDLWWL
[1]; RGD elution
  number of phage displaying the same amino acid motif: 10

## PDDLWWL
[1]; direct infection of wells
  number of phage displaying the same amino acid motif: 3

## FVLWLV
[1]; direct infection of wells
  number of phage displaying the same amino acid motif: 1

## QRIVLGFT
[1]; direct infection of wells
  number of phage displaying the same amino acid motif: 1

## WDDGWL (disulfide (positions not given here))
[1]; EDTA elution
  number of phage displaying the same amino acid motif: 21
[1]; RGD elution
  number of phage displaying the same amino acid motif: 131
[1]; direct infection of wells
  number of phage displaying the same amino acid motif: 45
[6]
  divalent cation requirement of phage binding: did not require divalent cations
[7]
  phage binding: minimal
[8]
  phage binding: minimal
[9]
  phage binding: minimal

## O=C(O)CN(CCN(CC(=O)O)CC(=O)O)CC(=O)O [EDTA, reference compound]
[10]; peptides coated in the presence of cations, EDTA 10 mM
  effect of EDTA on RGD-phage binding: did not block phage binding

## DYWLGF
[1]; direct infection of wells
  number of phage displaying the same amino acid motif: 1

## Fibronectin
[11]
  retention on control unrelated peptide column: not retained

## GNRLR
[1]; direct infection of wells
  number of phage displaying the same amino acid motif: 1

## TLRFQRS
[1]; EDTA elution
  number of phage displaying the same amino acid motif: 1

## *CWDDGWLC* (disulfide)
[2]
  inhibition of WDDGWL-phage binding: in a dose-dependent manner
RGD-phage
  binding of RGD-phage to immobilized peptide: can bind to the *CWDDGWLC*-containing
[4]
  inhibition of WDDGWL-phage binding to immobilized peptide: blocked the WDDGWL-phage binding
[5]
  inhibition of RGD-phage binding to immobilized peptide: inhibited by both peptides
fibronectin; fibronectin 2 mg, TBS, SDS-PAGE
  binding of fibronectin to peptide-Sepharose: fibronectin bound to *CWDDGWLC*-Sepharose
[12]
  inhibition of cell attachment: inhibited cell adhesion
[13]
  inhibition of cell attachment: inhibited cell adhesion
[14]
  inhibition of cell attachment: not on collagen
[10]; soluble peptide, Fig. 6 b
  inhibition of RGD-phage binding: blocked
[15]; Fig. 7 a or b, also MG-63 extracts
  effect of peptide on reactivity of positive control antibodies: no ef- fect on the reactivity of the positive control antibodies
[15]; peptide 100 μM, Fig. 7 a lanes C and D
  reactivity of the anti-*CWDDGWLC* serum after preincubation with peptide: abrogated
[16]
  reactivity of the anti-WDDGWL serum after preincubation with peptide: abrogated

## *CVRLNSLAC* (disulfide) [reference compound]
[12]
  inhibition of cell attachment: no effect on any of the substrates
[13]
  inhibition of cell attachment: no effect on any of the substrates
[14]
  inhibition of cell attachment: no effect on any of the substrates

## DGWLGF
[1]; direct infection of wells
  number of phage displaying the same amino acid motif: 2

## BSA: control protein
fibronectin; proteins other than fibronectin
  retention on *CWDDGWLC*-Sepharose column: not retained

Reference: publication PMC2120548 (The Journal of Cell Biology, 1995)
